According to publication PMC12382740, “In Vitro and In Vivo Characterization of Novel Cathelicidin-Based Peptides with Antimicrobial Activity Against Pseudomonas aeruginosa” (Antibiotics, 2025):
Where two headings read alike, the source gives them in different places. Square brackets hold non-standard residues; d marks the D form. Peptide text beside a SMILES is read from it.

What was measured:
[1] = system: P. aeruginosa Strain ATCC 121110; format: cell-based, Pseudomonas aeruginosa
Method: (§1) The antimicrobial activity of the peptides was tested against a collection of P. aeruginosa, selected by their resistance or susceptibility to colistin and/or classified as MDR strains. The origin of the strains was either clinical, relevant to the current clinical situation, or commercial strains belonging to the American Type Culture Collection (ATCC, Manassas, VA, USA), which complemented the collection for comparison and control. For the initial activity screening of the 17 peptides, we tested them against P. aeruginosa ATCC strains 1211007 and 1211101. Both strains are multidrug-resistant; however, the key difference is that strain 1211007 is susceptible to colistin, whereas strain 1211101 is resistant to colistin.
(§2) Minimum Inhibitory Concentration (MIC) of the antimicrobial agents against bacterial strains was obtained through broth microdilution assays following a protocol based on the Clinical & Laboratory Standards Institute’s guidelines. Modifications regarding microplate material and broth were included when testing the peptides’ activity and are detailed below. Colistin MICs were obtained following recommendations of the joint CLSI-EUCAST Polymyxin Breakpoints Working Group using Cation Adjusted Mueller-Hinton Broth (90922, 500 g Sigma-Aldrich®, St. Louis, MO, USA), and strains Escherichia coli 13846 (mcr-1 positive) and P. aeruginosa ATCC 27853 were used as quality controls in all assays. Bacteria were cultured in Columbia Agar plates (Columbia Agar with 5% Sheep Blood 90 mm Stacker plates, Becton Dickinson, Franklin Lakes, NJ, USA) and incubated overnight at 37 °C. Polypropylene round-bottomed 96-well plates (-96-well Polypropylene Storage Microplates, 267334, Thermo Fischer Scientific, Waltham, MA, USA) were used to prevent peptide binding to plate walls. AST broth (BD Phoenix™ AST broth, 8 mL, 246003, Becton Dickinson, Franklin Lakes, NJ, USA) was used when testing the peptides’ activity. […] Three biological and technical replicates were performed per strain.

[2] = system: P. aeruginosa Strain 121007; format: cell-based, Pseudomonas aeruginosa
Method: as §1, §2

[3] = Strain ATCC 121110, value in brackets
[4] = Strain 121007, value in brackets

Molecule | MIC ([1]; Strain ATCC 121110) | MIC [1, 3] | MIC ([2]; Strain 121007) | MIC [2, 4] | MIC ([1]; ATCC 121110)
CC[C@@H](C)[C@@H](NC(=O)CNC(=O)[C@@H](CCC(N)=O)NC(=O)[C@@H](CCCCN)NC(=O)[C@H](NC(=O)[C@@H](CCC(N)=O)NC(=O)CNC(=O)[C@@H](CC(C)C)NC(=O)[C@@H](CC(C)C)NC(=O)[C@H]1CCCN1C(=O)[C@@H](CCCCN)NC(=O)[C@@H](CC(C)C)NC(=O)[C@@H](C)NC(=O)[C@H]1CCCN1C(=O)[C@@H](CCCNC(=N)N)NC(=O)[C@H](NC(=O)[C@@H](CC(=O)O)NC(=O)[C@H](N)Cc1ccc(O)cc1)[C@H](C)O)[C@H](C)CC)C(=O)N[C@H](CCCCN)C(=O)N[C@H](CCCCN)C(=O)N[C@H](CC(C)C)C(=O)N[C@H](CCCCN)C(=O)N[C@H](CCC(=O)O)C(=O)N[C@H](CCCCN)C(=O)N[C@@H](C(=O)N[C@H](CCCCN)C(=O)N[C@H](CC(N)=O)C(=O)N[C@H](CCCNC(=N)N)C(=O)N[C@H](Cc1ccccc1)C(=O)N[C@H](CCCCN)C(=O)N[C@H](CCCNC(=N)N)C(=O)N[C@H](CC(C)C)C(=O)N[C@H](CCCNC(=N)N)C(=O)N[C@H](CCCCN)C(=O)N[C@H](CCCNC(=N)N)C(=O)N[C@H](CC(C)C)C(=O)NCC(=O)O)[C@H](C)CC [R-CAP-18, Ydtrpalkpllgqikqgikklkekiknrfkrlrkrlg] (H-[dY][dD][dT][dR][dP][dA][dL][dK][dP][dL][dL]G[dQ][dI][dK][dQ]G[dI][dK][dK][dL][dK][dE][dK][dI][dK][dN][dR][dF][dK][dR][dL][dR][dK][dR][dL]G-OH) | 32 µg/mL | 7.2 µM | 2 µg/mL | 0.4 µM | 
CC[C@@H](C)[C@@H](NC(=O)CNC(=O)[C@@H](CCC(N)=O)NC(=O)[C@@H](CCCCN)NC(=O)[C@H](NC(=O)[C@@H](CCC(N)=O)NC(=O)CNC(=O)[C@@H](CC(C)C)NC(=O)[C@@H](CC(C)C)NC(=O)[C@H]1CCCN1C(=O)[C@@H](CCCCN)NC(=O)[C@H](N)CC(C)C)[C@H](C)CC)C(=O)N[C@H](CCCCN)C(=O)N[C@H](CCCCN)C(=O)N[C@H](CC(C)C)C(=O)N[C@H](CCCCN)C(=O)N[C@H](CCC(=O)O)C(=O)N[C@H](CCCCN)C(=O)N[C@@H](C(=O)N[C@H](CCCCN)C(=O)N[C@H](CC(N)=O)C(=O)N[C@H](CCCNC(=N)N)C(=O)N[C@H](Cc1ccccc1)C(=O)N[C@H](CCCCN)C(=O)N[C@H](CCCNC(=N)N)C(=O)N[C@H](CC(C)C)C(=O)N[C@H](CCCNC(=N)N)C(=O)N[C@H](CCCCN)C(=O)N[C@H](CCCNC(=N)N)C(=O)N[C@H](CC(C)C)C(=O)NCC(=O)O)[C@H](C)CC [R-CAP-18_31, Lkpllgqikqgikklkekiknrfkrlrkrlg] (H-[dL][dK][dP][dL][dL]G[dQ][dI][dK][dQ]G[dI][dK][dK][dL][dK][dE][dK][dI][dK][dN][dR][dF][dK][dR][dL][dR][dK][dR][dL]G-OH) | 4 µg/mL | 1.1 µM | 0.5 µg/mL | 0.1 µM | 
H-FRNKIKEKLKKIGQKIQG-OH [CAP-18_18] |  | > 30 µM | > 64 µg/mL | > 30 µM | > 64 µg/mL
H-FRNKIKEKLKKIGQKIQGLLPKL-OH [CAP-18_23] |  | > 12 µM | > 64 µg/mL | > 24 µM | > 32 µg/mL
H-GLRKRLRKFRNKIKEKLKKIG-OH [CAP-18_21] |  | 12 µM | 32 µg/mL | 12 µM | 32 µg/mL
H-IKEKLKKIGQKIQG-OH [CAP-18_14] |  | > 40 µM | > 64 µg/mL |  | > 64 µg/mL
H-IKEKLKKIGQKIQGLLPKL-OH [CAP-18_19] |  | > 29 µM | > 64 µg/mL | > 29 µM | > 64 µg/mL
